The source of these data is patent publication US20160108039A1, “TRIAZOLOPYRIDINES AS THROMBIN INHIBITORS FOR THE TREATMENT OF THROMBOEMBOLIC DISEASES” (BAYER PHARMA AKTIENGESELLSCHAFT, priority 2013, published 2016).

As usually defined, the IC50 is the point on the concentration scale where inhibition reaches its midpoint.

The target of assay [1] is T1, thrombin (Homo sapiens, UniProt P00734). Kind of assay: Measurement of the thrombin inhibition in buffer. In kind it is biochemical. As to conditions: human thrombin 0.06 nmol/l in Tris buffer pH 7.4, 22° C., substrate Boc-Asp(OBzl)-Pro-Arg-AMC; in some cases means of individual determinations. In outline: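 Compound pre-incubated 15 min at 22° C with 0.06 nmol/l human thrombin in 50 mmol/l Tris, 100 mmol/l NaCl, 0.1% BSA, pH 7.4, then 5 μmol/l Boc-Asp(OBzl)-Pro-Arg-AMC added for 30 min. AMC fluorescence read at 360/460 nm against DMSO controls; IC50 from concentration–activity curves.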

Assay [2] deals with T1, thrombin. Nature of the assay: Thrombin-inhibitory activity in plasma samples (ecarin-activated). Conditions: citrate plasma, ecarin activation, fluorogenic thrombin substrate; read at about 70% of maximum signal (about 12 min); in some cases means. In kind it is biochemical. Put shortly:
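Citrate plasma prothrombin activated by ecarin (20 mU per reaction) in Ca2+-containing Hepes buffer with compound; unstimulated controls lacked ecarin. Thrombin activity followed with fluorogenic substrate (50 μmol/l final), ex 360/em 465 nm, read every minute over 20 minutes.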

Consider `CCC1C(=O)NC(C)CN1C(=O)c1cc(OC)c2nc(NCc3cccc(Cl)c3)nn2c1` (single isomer, unassigned) [Example 63, 4-({2-[(3-Chlorobenzyl)amino]-8-methoxy[1,2,4]triazolo[1,5-a]pyridin-6-yl}carbonyl)-3-ethyl-6-methylpiperazin-2-one], for which the IC50 worked out at 9.8 nM in assay [1] and 24 nM in assay [2].
For `COc1cc(C(=O)N2CC(C)(C)OCC2C(C)(C)O)cn2nc(NCc3cccc(Cl)c3)nc12` (single isomer, unassigned) [Example 66, {2-[(3-Chlorobenzyl)amino]-8-methoxy[1,2,4]triazolo[1,5-a]pyridin-6-yl}[5-(2-hydroxypropan-2-yl)-2,2-dimethylmorpholin-4-yl]methanone], the IC50 was determined as 25 nM in assay [1] and 24 nM in assay [2].
On to `COc1cc(C(=O)N2CC(C)(C)OCC2C2(O)CC2)cn2nc(NCc3cccc(Cl)c3)nc12` (single isomer, unassigned) [Example 67, {2-[(3-Chlorobenzyl)amino]-8-methoxy[1,2,4]triazolo[1,5-a]pyridin-6-yl}[5-(1-hydroxycyclopropyl)-2,2-dimethylmorpholin-4-yl]methanone], for which the IC50 was 48 nM in assay [1] and 90 nM in assay [2].
On to `COc1cc(C(=O)N2CC(C)(C)OCC2C(C)O)cn2nc(NCc3cccc(Cl)c3)nc12` (single isomer, unassigned) [Example 68, {2-[(3-Chlorobenzyl)amino]-8-methoxy[1,2,4]triazolo[1,5-a]pyridin-6-yl}[5-(1-hydroxyethyl)-2,2-dimethylmorpholin-4-yl]methanone], for which the figures for the IC50 in assay [1] and in assay [2] were 49 nM and 106 nM, respectively.
On to `CC[C@@H]1COC(C)(CCO)CN1C(=O)c1cc(OC)c2nc(NCc3cccc(Cl)c3)nn2c1` (single isomer, unassigned) [Example 70], for which the IC50 stood at 6.1 nM in assay [1] and 35 nM in assay [2].
With `COCC1COC(C)(CCO)CN1C(=O)c1cc(OC)c2nc(NCc3cccc(Cl)c3)nn2c1` (single isomer, unassigned) [Example 72, {2-[(3-Chlorobenzyl)amino]-8-methoxy[1,2,4]triazolo[1,5-a]pyridin-6-yl}[2-(2-hydroxyethyl)-5-(methoxymethyl)-2-methylmorpholin-4-yl]methanone], the IC50 in assay [1] stood at 13 nM; in assay [2], 34 nM.
For `[2H]C([2H])(C)O[C@@H]1CC(CO)N(C(=O)c2cc(OC)c3nc(NCc4cccc(Cl)c4)nn3c2)C1` (single isomer, unassigned) [Example 74], in that order: 19 nM and 19 nM.
In the same order, the values of `COc1cc(C(=O)N2C[C@H](OCC(F)F)CC2CO)cn2nc(NCc3cccc(Cl)c3)nc12` (single isomer, unassigned) [Example 75] are 23 nM and 74 nM.
On to `COc1cc(C(=O)N2CC3CCN3C(=O)C2C)cn2nc(NC(CF)c3cccc(Cl)c3)nc12` (single isomer, unassigned) [Example 77, 4-[(2-{[1-(3-Chlorophenyl)-2-fluoroethyl]amino}-8-methoxy[1,2,4]triazolo[1,5-a]pyridin-6-yl)carbonyl]-3-methyl-1,4-diazabicyclo[4.2.0]octan-2-one], for which the IC50 worked out at 6.4 nM in assay [1] and 5.9 nM in assay [2].
In the same order, the values of `COc1cc(C(=O)N2CC(C)OCC2C2CC(O)C2)cn2nc(NCc3cccc(Cl)c3)nc12` (stereo not drawn) [Example 2, {2-[(3-Chlorobenzyl)amino]-8-methoxy[1,2,4]triazolo[1,5-a]pyridin-6-yl}[5-(3-hydroxycyclobutyl)-2-methylmorpholin-4-yl]methanone] are 19 nM and 20 nM.
In the same order, the values of `COc1cc(C(=O)N2CC(C)(C)OC[C@H]2CCO)cn2nc(NCc3cccc(Cl)c3)nc12` [Example 7, {2-[(3-Chlorobenzyl)amino]-8-methoxy[1,2,4]triazolo[1,5-a]pyridin-6-yl}[(5R)-5-(2-hydroxyethyl)-2,2-dimethylmorpholin-4-yl]methanone] are 20 nM and 24 nM.
In the same order, the values of `COc1cc(C(=O)N2CC(C)(C)OCC2CC(C)O)cn2nc(NCc3cccc(Cl)c3)nc12` (stereo not drawn) [Example 45, {2-[(3-Chlorobenzyl)amino]-8-methoxy[1,2,4]triazolo[1,5-a]pyridin-6-yl}[5-(2-hydroxypropyl)-2,2-dimethylmorpholin-4-yl]methanone] are 33 nM and 34 nM.
As to `COc1cc(C(=O)N2CC(C)(CCO)OCC2CF)cn2nc(NCc3cccc(Cl)c3)nc12` (stereo not drawn) [Example 50, {2-[(3-Chlorobenzyl)amino]-8-methoxy[1,2,4]triazolo[1,5-a]pyridin-6-yl}[5-(fluoromethyl)-2-(2-hydroxyethyl)-2-methylmorpholin-4-yl]methanone], the IC50 was found to be 18 nM in assay [1] and 122 nM in assay [2].
For `CCC1C(=O)N2CCC2CN1C(=O)c1cc(OC)c2nc(NCc3cccc(Cl)c3)nn2c1` (stereo not drawn) [Example 58, 4-({2-[(3-Chlorobenzyl)amino]-8-methoxy[1,2,4]triazolo[1,5-a]pyridin-6-yl}carbonyl)-3-ethyl-1,4-diazabicyclo[4.2.0]octan-2-one], in that order: 36 nM and 39 nM.
In the same order, the values of `COc1cc(C(=O)N2CC(C)CCC2CCO)cn2nc(NCc3cccc(Cl)c3)nc12` (stereo not drawn) [Example 64, {2-[(3-Chlorobenzyl)amino]-8-methoxy[1,2,4]triazolo[1,5-a]pyridin-6-yl}[2-(2-hydroxyethyl)-5-methylpiperidin-1-yl]methanone] are 25 nM and 63 nM.
For `COc1cc(C(=O)N2CC(C)CCC2C(N)=O)cn2nc(NCc3cccc(Cl)c3)nc12` (stereo not drawn) [Example 65, 1-({2-[(3-Chlorobenzyl)amino]-8-methoxy[1,2,4]triazolo[1,5-a]pyridin-6-yl}carbonyl)-5-methylpiperidine-2-carboxamide], in that order: 8.9 nM and 102 nM.
With `CC[C@@H]1COC(C)(CCO)CN1C(=O)c1cc(OC)c2nc(NCc3cccc(Cl)c3)nn2c1` (stereo partly drawn) [Example 69, {2-[(3-Chlorobenzyl)amino]-8-methoxy[1,2,4]triazolo[1,5-a]pyridin-6-yl}[(5R)-5-ethyl-2-(2-hydroxyethyl)-2-methylmorpholin-4-yl]methanone], the figures for the IC50 in assay [1] and in assay [2] were 25 nM and 39 nM, respectively.
Regarding `COCC1COC(C)(CCO)CN1C(=O)c1cc(OC)c2nc(NCc3cccc(Cl)c3)nn2c1` (stereo not drawn) [Example 71, {2-[(3-Chlorobenzyl)amino]-8-methoxy[1,2,4]triazolo[1,5-a]pyridin-6-yl}[2-(2-hydroxyethyl)-5-(methoxymethyl)-2-methylmorpholin-4-yl]methanone], the IC50 in assay [1] worked out at 35 nM; in assay [2] it was 87 nM.
